Measured values as given in US9783573B2, “IAP antagonists” (BRISTOL-MYERS SQUIBB COMPANY, priority 2012, dated 2017).
Like-named read-outs stand apart in the source and are kept apart here.

Target: N-His-Tb-BIR3 (241-356, XIAP) (Homo sapiens (Human), UniProt P98170)
Experiment: biochemical
Format: binding
[1] = fluoresceinated modified SMAC peptide, fluorescence polarization, read-out: XIAP BIR3 FPA IC50

| Structure (SMILES) | IC50 [1] [nM] | other results |
| --- | --- | --- |
| CN[C@@H](C)C(=O)N[C@H](C(=O)N1Cc2cc(NC(=O)c3ccc(C(=O)Nc4ccc5c(c4)CN(C(=O)[C@@H](NC(=O)[C@H](C)NC)C(C)(C)C)[C@H](C(=O)N[C@@H](COC)c4ccccc4)C5)cc3)ccc2C[C@H]1C(=O)N[C@@H](COC)c1ccccc1)C(C)(C)C [Example 14, N^1,N^4-bis((S)-2-((S)-3,3-Dimethyl-2-((S)-2-(methylamino)propanamido)butanoyl)-3-(((R)-2-methoxy-1-phenylethyl)carbamoyl)-1,2,3,4-tetrahydroisoquinolin-7-yl)terephthalamide] | 130 |  |
| CN[C@@H](C)C(=O)N[C@H](C(=O)N1CC[C@@H](OCc2ccc(C(=O)N[C@H]3C[C@@H](C(=O)N[C@@H]4CCCc5ccccc54)N(C(=O)[C@@H](NC(=O)[C@H](C)NC)C(C)(C)C)C3)cc2)C[C@H]1C(=O)N[C@@H]1CCCc2ccccc21)C(C)(C)C [Example 30, (2S,4R)-1-((S)-3,3-Dimethyl-2-((S)-2-(methylamino)propanamido)butanoyl)-4-((4-(((3S,5S)-1-((S)-3,3-dimethyl-2-((S)-2-(methylamino)propanamido)butanoyl)-5-(((R)-1,2,3,4-tetrahydronaphthalen-1-yl)carbamoyl)pyrrolidin-3-yl)carbamoyl)benzyl)oxy)-N—((R)-1,2,3,4-tetrahydronaphthalen-1-yl)piperidine-2-carboxamide] | 38 |  |
| CN[C@@H](C)C(=O)N[C@H](C(=O)N1Cc2cc(NC(=O)C(F)(F)C(F)(F)C(=O)N[C@H]3C[C@@H](C(=O)N[C@@H]4CCCc5ccccc54)N(C(=O)[C@@H](NC(=O)[C@H](C)NC)C(C)(C)C)C3)ccc2C[C@H]1C(=O)N[C@@H]1CCCc2ccccc21)C(C)(C)C [Example 17, N^1—((S)-2-((S)-3,3-Dimethyl-2-((S)-2-(methylamino)propanamido)butanoyl)-3-(((R)-1,2,3,4-tetrahydronaphthalen-1-yl)carbamoyl)-1,2,3,4-tetrahydroisoquinolin-7-yl)-N^4-((3S,5S)-1-((S)-3,3-dimethyl-2-((S)-2-(methylamino)propanamido)butanoyl)-5-(((R)-1,2,3,4-tetrahydronaphthalen-1-yl)carbamoyl)pyrrolidin-3-yl)-2,2,3,3-tetrafluorosuccinamide] |  | IC50 (read-out: XIAP BIR3 FPA IC50): 56 nM |
| CN[C@@H](C)C(=O)N[C@H](C(=O)N1Cc2cc(N(C(=O)C3(C(N)=O)CCC3)[C@H]3C[C@@H](C(=O)N[C@@H]4CCCc5ccccc54)N(C(=O)[C@@H](NC(=O)[C@H](C)NC)C(C)(C)C)C3)ccc2C[C@H]1C(=O)N[C@@H]1CCCc2ccccc21)C(C)(C)C [Example 5, N-((S)-2-((S)-3,3-Dimethyl-2-((S)-2-(methylamino)propanamido)butanoyl)-3-(((R)-1,2,3,4-tetrahydronaphthalen-1-yl)carbamoyl)-1,2,3,4-tetrahydroisoquinolin-7-yl)-N-((3S,5S)-1-((S)-3,3-dimethyl-2-((S)-2-(methylamino)propanamido)butanoyl)-5-(((R)-1,2,3,4-tetrahydronaphthalen-1-yl)carbamoyl)pyrrolidin-3-yl)cyclobutane-1,1-dicarboxamide] | 69 |  |
| CN[C@@H](C)C(=O)N[C@H](C(=O)N1Cc2ccc(OCc3ccc(C(=O)N[C@H]4C[C@@H](C(=O)NC5CCCc6ccccc65)N(C(=O)[C@@H](NC(=O)[C@H](C)NC)C(C)(C)C)C4)cc3)cc2C[C@@H]1C(=O)NC1CCCc2ccccc21)C(C)(C)C (stereo partly drawn) [Example 42, (R)-2-((S)-3,3-Dimethyl-2-((S)-2-(methylamino)propanamido)butanoyl)-6-((4-(((3S,5S)-1-((S)-3,3-dimethyl-2-((5)-2-(methylamino)propanamido)butanoyl)-5-(((R)-1,2,3,4-tetrahydronaphthalen-1-yl)carbamoyl)pyrrolidin-3-yl)carbamoyl)benzyl)oxy)-N-((R)-1,2,3,4-tetrahydronaphthalen-1-yl)-1,2,3,4-tetrahydroisoquinoline-3-carboxamide] | 240 |  |
| CN[C@@H](C)C(=O)N[C@H](C(=O)N1Cc2cc(NC(=O)c3ccc(C(=O)Nc4ccc5c(c4)CN(C(=O)[C@@H](NC(=O)[C@H](C)NC)C(C)(C)C)[C@H](C(=O)N[C@H](C)c4ccccc4F)C5)cc3)ccc2C[C@H]1C(=O)N[C@H](C)c1ccccc1F)C(C)(C)C [Example 12, N^1,N^4-bis((S)-2-((S)-3,3-Dimethyl-2-((S)-2-(methylamino)propanamido)butanoyl)-3-(((R)-1-(2-fluorophenyl)ethyl)carbamoyl)-1,2,3,4-tetrahydroisoquinolin-7-yl)terephthalamide] | 130 |  |
| CN[C@@H](C)C(=O)N[C@H](C(=O)N1Cc2cc(NCc3ccc(C(=O)N[C@H]4C[C@@H](C(=O)N[C@@H]5CCCc6ccccc65)N(C(=O)[C@@H](NC(=O)[C@H](C)NC)C(C)(C)C)C4)cc3)ccc2C[C@H]1C(=O)N[C@@H]1CCCc2ccccc21)C(C)(C)C [Example 31, (S)-2-((S)-3,3-Dimethyl-2-((S)-2-(methylamino)propanamido)butanoyl)-7-((4-(((3S,5S)-1-((S)-3,3-dimethyl-2-((S)-2-(methylamino)propanamido)butanoyl)-5-(((R)-1,2,3,4-tetrahydronaphthalen-1-yl)carbamoyl)pyrrolidin-3-yl)carbamoyl)benzyl)amino)-N—((R)-1,2,3,4-tetrahydronaphthalen-1-yl)-1,2,3,4-tetrahydroisoquinoline-3-carboxamide] | 71 |  |
| CN[C@@H](C)C(=O)N[C@H](C(=O)N1Cc2cc(NC(=O)c3ccc(C(=O)N[C@H]4C[C@@H](C(=O)N[C@@H]5CCCc6ccccc65)N(C(=O)[C@@H](NC(=O)[C@@H](NC)C(C)C)C(C)(C)C)C4)cc3)ccc2C[C@H]1C(=O)N[C@@H]1CCCc2ccccc21)C(C)(C)C [Example 36, N^1-((S)-2-((S)-3,3-dimethyl-2-((S)-2-(methylamino)propanamido)butanoyl)-3-(((R)-1,2,3,4-tetrahydronaphthalen-1-yl)carbamoyl)-1,2,3,4-tetrahydroisoquinolin-7-yl)-N^4-((3S,5S)-1-((S)-3,3-dimethyl-2-((S)-3-methyl-2-(methylamino)butanamido)butanoyl)-5-(((R)-1,2,3,4-tetrahydronaphthalen-1-yl)carbamoyl)pyrrolidin-3-yl)terephthalamide] |  | IC50: 190 nM |
| CN[C@@H](C)C(=O)N[C@H](C(=O)N1Cc2cc(N(Cc3ccc(C(=O)N[C@H]4C[C@@H](C(=O)N[C@@H]5CCCc6ccccc65)N(C(=O)[C@@H](NC(=O)[C@H](C)NC)C(C)(C)C)C4)cc3)C(C)=O)ccc2C[C@H]1C(=O)N[C@@H]1CCCc2ccccc21)C(C)(C)C [Example 32, (S)-2-((S)-3,3-Dimethyl-2-((S)-2-(methylamino)propanamido)butanoyl)-7-(N-(4-(((3S,5S)-1-((S)-3,3-dimethyl-2-((S)-2-(methylamino)propanamido)butanoyl)-5-(((R)-1,2,3,4-tetrahydronaphthalen-1-yl)carbamoyl)pyrrolidin-3-yl)carbamoyl)benzyl)acetamido)-N—((R)-1,2,3,4-tetrahydronaphthalen-1-yl)-1,2,3,4-tetrahydroisoquinoline-3-carboxamide] | 35 |  |
